Laboratory results: PMC2567432 (PLoS ONE, 2008)
pIC50: −log10 of the molar value.

Key:
astrocytoma 1321N1 cells [1] = experiment: Cellular ATP content (CellTiter-Glo), 1321N1; type: cell-based; details: 1321N1, 6 h; curcumin 0–100 µM, MGO 0–1000 µM
Procedure: (§1) Cellular ATP content was determined using the CellTiter-Glo® Luminescent Cell Viability Assay. Data represent the mean±S.D. of independent experiments (n = 12).
(§2) Cell ATP content was determined by means of the CellTiter-Glo® Luminescent Cell Viability Assay according to the manufacturer's instructions (Promega, Madison, USA). […] After 6-h incubation, cells were mixed with test reagents and luminescence was read according to the manufacturer's instructions. A standard curve was prepared from ATP (1 µM to 10 nM) in medium.

LDH = LDH activity measurement, interference check; type: biochemical; details: spectrophotometric, 340 nm
Procedure: (§3) LDH activity was spectrophotometrically assayed in the cytosolic extract or in the of cell cultures by adding aliquots to 1 ml reaction buffer (50 mM Na2HPO4, pH 7.0, 0.15 mM NADH, and 0.3 mM pyruvate). Enzyme activity was recorded at 340 nm.

LDH in JIMT-1 cells = experiment: LDH activity in cytosolic extract of treated cells; type: cell-based, human; details: JIMT-1, 24 h
Procedure: (§4) Cells were harvested and the specific activity of Glo1 and LDH was determined in the cytosolic extract. (B) Semi-quantitative analysis of protein content as performed by Western blot using specific antibodies against β-actin and Glo1. The blot was developed by chemoluminescense detection. […] Data represent the mean±S.D. of independent experiments (n = 6).
as §3

JIMT-1 cells [2] = experiment: Glutathione (GSH) level in cytosolic extract, JIMT-1; type: cell-based, human; details: JIMT-1, 50 µM, 24 h
Procedure: Cells were harvested and GSH concentration was determined in the cytosolic extract. Data represent the mean±S.D. of independent experiments (n = 6).
GSH was determined using DTNB method. Briefly, cytosolic extract of tumor cells were precipitated by 5% sulfosalicylic acid neutralization, aliquots were mixed with DTNB and absorbance was read at 412 nm against a standard solution of GSH.

JIMT-1 cells [3] = experiment: Cellular ATP content (CellTiter-Glo), JIMT-1; type: cell-based, human; details: JIMT-1, 6 h; curcumin 0–100 µM, MGO 0–1000 µM
Procedure: as §1, §2

[4] = system: prostate cancer PC-3 cells; experiment: Cell proliferation WST-1 assay, PC-3; type: cell-based
Procedure: (§5) Figure 3 Growth inhibition of different tumor cell lines by polyphenols. […] Following 24-h incubation, cell proliferation was evaluated using the WST-1 assay.
(§6) Tumor cells were cultured in RPMI medium containing 10% fetal calf serum (RPMI-FCS) (PC-3, JIMT-1, MDA-MD 231) or in DMEM-FCS (astrocytoma 1321N1 cells) containing penicillin/streptomycin (100 U penicillin/ml; 100 µg streptomycin/ml) at 37°C/5% CO2. Cytosolic protein extracts of tumor cells were prepared using extraction buffer composed of 25 mM Tris, 2 mM EDTA, 10% Glycerol, 1% Triton ×100, 2 mM DTT, 1mM PMSF, pH. 7.0 containing 0.3% protease inhibitor cocktail. Protein content was determined according to Bradford. Specific activity of enzymes analyzed in cell extracts was expressed as U/mg protein.
(§7) Cell proliferation/vitality of tumor cells (96-well plates; 5000 cells/well) and primary human hepatocytes (24-well plates; 0.25×10^6 cells/well) was assayed using the WST-1 assay according to manufacturer's instructions. Trypan blue exclusion was performed by staining cells with 0.4% aqueous trypan blue solution according to the manufacturer's instructions.

astrocytoma 1321N1 cells [5] = experiment: D-lactate release into medium; type: cell-based; details: 1321N1, 20 µM curcumin, 24 h; control 34.6±6 µM
Procedure: as §4
The determination of D-lactate and L-lactate in supernatants of astrocytoma 1321N1 cells was performed by an enzymatic method based on the oxidation of L-lactate and D-lactate to pyruvate by NAD in the presence of L-LDH or D-LDH[63].

[6] = system: IL-1β release from LPS-stimulated blood cells; experiment: Whole blood assay, LPS-induced IL-1β release (cytometric bead array); type: cell-based; details: Homo sapiens; heparinized whole blood, LPS 10 ng/ml, 6 h, 37°C
Procedure: Figure 2 Effect of polyphenols on IL-1β release from LPS-stimulated blood cells. Heparinized whole blood was stimulated by LPS in the absence or presence of polyphenols at increasing concentrations and incubated for 6 h at 37°C with 5% CO2. (A) Released IL-1β as measured in cell supernatants. Samples without additives but LPS were set at 100%. (B) The calculated […] values of the respective polyphenols. Data represent mean±S.D. of independent experiments (n = 6).
Whole blood assay was performed as previously described. Accordingly, LPS (10 ng/ml), test substances and 200 µl heparinized human blood of healthy donors, obtained from the blood bank of the University of Leipzig, were co-incubated with serum-free medium (RPMI-SF, 1 ml final volume) in 24-well culture plates for 6 h at 37°C with 5% CO2. Samples were removed, centrifuged at 2000×g for 10 min and supernatants were stored at −20°C until assaying for inflammatory cytokines.
Assessment of cytokine levels in supernatants of human blood cell cultures was accomplished using Cytometric Bead Array (CBA™, BD Biosciences, San Jose, U.S.A). The procedure was carried out according to the manufacturer's instruction. Fluorescence measurement and analysis were performed using a FACSCalibur and the CellQuest software (BD Biosciences).

[7] = system: breast cancer MDA-MB-231 cells; experiment: Cell proliferation WST-1 assay, MDA-MB-231; type: cell-based, human; details: MDA-MB-231, 24 h
Procedure: as §5, §6, §7

astrocytoma 1321N1 cells [8] = experiment: Apoptosis/necrosis by annexin V-FITC/PI staining, flow cytometry; type: cell-based; details: 24 h
Procedure: Apoptosis/necrosis was evaluated using annexin V-5-fluorescein isothiocyanate (FITC)/propidium iodine (PI) staining followed by flow cytometric analysis. […] The proportion of dead cells (a: annexin V-FITC^−/PI^+), late apoptotic/necrotic cells (b: annexin V-FITC^+/PI^+), non-apoptotic cells (c: annexin V-FITC^−/PI^−) and early apoptotic cells (d: annexin V-FITC^+/PI^−). (B) Results of 3 independent experiments. […] Data represent the mean±S.D. of three independent experiments.
Samples were analyzed by flow cytometry using a FACSCalibur and the CellQuest software (BD Biosciences, San Jose, USA). Laser excitation wavelength was set at 488 nm. The green signal from annexin V-FITC was measured at 525 nm and the red signal from PI was measured at 620 nm. Annexin V^−/PI^− cells are viable; annexin V^+/PI^− cells are in early apoptosis, whereas annexin V^+/PI^+ cells are necrotic or in late apoptosis are […]

1321N1 cells = experiment: L-LDH release into cell supernatants; type: cell-based; details: 50 µM
Procedure: Tumor cells were cultured and treated as mentioned in Fig. 3. (A) LDH activity was measured in cell supernatants. (B) Cell vitality as assayed by the trypan blue exclusion test. Data represent the mean±S.D. of independent experiments (n = 6).
as §3

Structure (SMILES): COc1cc(C=CC(=O)CC(=O)C=Cc2ccc(O)c(OC)c2)ccc1O [curcumin, 1,7-bis(4-hydroxy-3-methoxyphenyl)-1,6-heptadiene-3,5-dione]
- cellular ATP content (astrocytoma 1321N1 cells [1]): decreased cellular ATP in a concentration-dependent manner
- effect on LDH enzyme activity in the assay (LDH): not affected
- LDH activity in cytosolic extract (LDH in JIMT-1 cells): increased at higher curcumin concentrations
- GSH diminished by (JIMT-1 cells [2]): approximately 20%
- cellular ATP content (JIMT-1 cells [3]): decreased cellular ATP in a concentration-dependent manner
- effect on PC-3 cells at 100 µM ([4]; 100 µM, 24 h, morphology lost, necrotic cell death): toxic effect
- concentration giving strong anti-proliferative effects ([4]; PC-3, 24 h, WST-1): above 50 µM
- D-lactate concentration in the medium (astrocytoma 1321N1 cells [5]): 22 ± 1.9 µM
- pIC50 [6]: 5.10
- concentration giving strong anti-proliferative effects [7]: above 50 µM
- early apoptotic cells (annexin V-FITC+/PI−) (astrocytoma 1321N1 cells [8]; 10 µM): 11.0%
- late apoptotic/necrotic cells (annexin V-FITC+/PI+) (astrocytoma 1321N1 cells [8]; 50 µM): 98.2%
- L-LDH release (1321N1 cells; 6-h incubation): not significantly increased
- LDH release (1321N1 cells; 24-h incubation): increased
